Patent US20250145585A1, “HETEROCYCLIC INHIBITORS OF IGF-1R FOR TREATMENT OF DISEASE” (HORIZON THERAPEUTICS IRELAND DAC, priority 2023, published 2025)

Target: T1, IGF-1R (Homo sapiens, UniProt P08069)
T1 construct: expressed in transfected cells
Assay: Example B-2: IGF-1R Assay (PathHunter cell lines, EC80 agonist challenge, chemiluminescent detection)
Format: cell-based
Settings: PathHunter cells, compound 60 minutes at 37° C., EC80 agonist 3 hours; read-out: IC50, Biological Activity against IGF-1R (Table B2)
In short: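 PathHunter cells were pre-incubated with compound for 60 min at 37° C (1% vehicle), then challenged with EC80 agonist for 3 h at room temperature. Chemiluminescent detection after 1 h gave % inhibition relative to EC80 and vehicle controls, from which IC50 was derived.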

T1 sequence (P08069 31-1367): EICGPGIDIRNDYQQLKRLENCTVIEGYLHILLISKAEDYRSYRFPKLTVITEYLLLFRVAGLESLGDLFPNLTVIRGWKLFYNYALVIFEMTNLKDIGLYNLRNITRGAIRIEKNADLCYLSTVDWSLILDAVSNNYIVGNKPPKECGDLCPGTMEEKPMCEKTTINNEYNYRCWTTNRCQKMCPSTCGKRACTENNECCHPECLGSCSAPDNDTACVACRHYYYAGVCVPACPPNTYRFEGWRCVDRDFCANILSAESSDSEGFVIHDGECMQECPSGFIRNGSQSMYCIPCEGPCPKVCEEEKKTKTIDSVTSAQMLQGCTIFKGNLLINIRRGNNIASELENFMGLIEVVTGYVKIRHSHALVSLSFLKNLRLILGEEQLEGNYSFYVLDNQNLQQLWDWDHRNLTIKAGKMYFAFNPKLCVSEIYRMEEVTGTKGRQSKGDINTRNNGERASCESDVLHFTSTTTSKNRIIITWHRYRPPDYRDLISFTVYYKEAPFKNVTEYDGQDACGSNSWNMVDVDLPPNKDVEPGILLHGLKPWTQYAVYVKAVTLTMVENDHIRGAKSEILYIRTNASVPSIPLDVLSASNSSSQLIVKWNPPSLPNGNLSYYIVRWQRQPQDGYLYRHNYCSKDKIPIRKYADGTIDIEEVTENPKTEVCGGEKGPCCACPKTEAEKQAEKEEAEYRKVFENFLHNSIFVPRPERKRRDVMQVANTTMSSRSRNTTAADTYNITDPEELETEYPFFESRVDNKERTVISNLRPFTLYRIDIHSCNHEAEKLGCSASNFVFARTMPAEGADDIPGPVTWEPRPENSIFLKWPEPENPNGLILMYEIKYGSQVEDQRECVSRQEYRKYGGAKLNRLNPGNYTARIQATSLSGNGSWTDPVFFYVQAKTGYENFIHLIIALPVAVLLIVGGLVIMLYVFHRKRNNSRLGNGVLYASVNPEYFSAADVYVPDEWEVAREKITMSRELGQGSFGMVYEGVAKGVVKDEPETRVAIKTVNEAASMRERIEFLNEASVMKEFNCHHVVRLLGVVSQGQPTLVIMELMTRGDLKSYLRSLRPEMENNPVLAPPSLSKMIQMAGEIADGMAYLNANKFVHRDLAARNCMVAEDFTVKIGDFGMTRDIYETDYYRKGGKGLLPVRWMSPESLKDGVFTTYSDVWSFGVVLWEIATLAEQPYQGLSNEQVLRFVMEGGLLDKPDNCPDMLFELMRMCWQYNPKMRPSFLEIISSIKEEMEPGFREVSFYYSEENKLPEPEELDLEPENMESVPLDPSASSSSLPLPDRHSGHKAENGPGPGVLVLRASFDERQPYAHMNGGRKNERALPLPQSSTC

IC50 [nM]	Structure (SMILES)
≤ 500	C[C@@H](Nc1cc(CN2C(=O)N(c3ccc4c(c3)N(S(C)(=O)=O)CC43CCC3)C(=O)C2(C)C)ccn1)c1cccnc1 [Compound 242, (R)-5,5-dimethyl-3-(1′-(methylsulfonyl)spiro[cyclobutane-1,3′-indolin]-6′-yl)-1-((2-((1-(pyridin-3-yl)ethyl)amino)pyridin-4-yl)methyl)imidazolidine-2,4-dione]
≤ 500	C[C@H](Nc1cc(CN2C(=O)N(c3ccc4c(c3)N(S(C)(=O)=O)CC43CCC3)C(=O)C2(C)C)ccn1)c1cccnc1 [Compound 243, (S)-5,5-dimethyl-3-(1′-(methylsulfonyl)spiro[cyclobutane-1,3′-indolin]-6′-yl)-1-((2-((1-(pyridin-3-yl)ethyl)amino)pyridin-4-yl)methyl)imidazolidine-2,4-dione]
≤ 500	CC1(C)C(=O)N(c2ccc3c(c2)N(S(C)(=O)=O)CC32CCC2)C(=O)N1Cc1ccnc(NCc2cccnc2)c1 [Compound 244, 5,5-dimethyl-3-(1′-(methylsulfonyl)spiro[cyclobutane-1,3′-indolin]-6′-yl)-1-((2-((pyridin-3-ylmethyl)amino)pyridin-4-yl)methyl)imidazolidine-2,4-dione]
≤ 500	CC1(C)CN(S(C)(=O)=O)c2cc(N3C(=O)N(Cc4ccnc(NCc5cc[nH]n5)c4)C(C)(C)C3=O)ccc21 [Compound 245, 1-((2-(((1H-pyrazol-3-yl)methyl)amino)pyridin-4-yl)methyl)-3-(3,3-dimethyl-1-(methylsulfonyl)indolin-6-yl)-5,5-dimethylimidazolidine-2,4-dione]
≤ 500	Cn1ccc(CNc2cc(CN3C(=O)N(c4ccc5c(c4)N(S(C)(=O)=O)CC5(C)C)C(=O)C3(C)C)ccn2)n1 [Compound 246, 3-(3,3-dimethyl-1-(methylsulfonyl)indolin-6-yl)-5,5-dimethyl-1-((2-(((1-methyl-1H-pyrazol-3-yl)methyl)amino)pyridin-4-yl)methyl)imidazolidine-2,4-dione]
≤ 500	[2H]C([2H])([2H])Nc1cc(CN2C(=O)N(c3ccc4c(c3)N(S(C)(=O)=O)CC4(C)C)C(=O)C2(C)C)ccn1 [Compound 247, 3-(3,3-dimethyl-1-(methylsulfonyl)indolin-6-yl)-5,5-dimethyl-1-((2-((methyl-d3)amino)pyridin-4-yl)methyl)imidazolidine-2,4-dione]
≤ 500	CC1(C)CN(S(=O)(=O)C2CC2)c2cc(N3C(=O)N(Cc4ccnc(NC5CCOCC5)c4)C(C)(C)C3=O)ccc21 [Compound 248, 3-(1-(cyclopropylsulfonyl)-3,3-dimethylindolin-6-yl)-5,5-dimethyl-1-((2-((tetrahydro-2H-pyran-4-yl)amino)pyridin-4-yl)methyl)imidazolidine-2,4-dione]
≤ 500	CC1(C)Cc2ccc(N3C(=O)N(Cc4ccnc(N[C@H]5[C@@H]6COC[C@@H]65)c4)C(C)(C)C3=O)cc2O1 [Compound 249, 1-((2-(((1R,5S,6r)-3-oxabicyclo[3.1.0]hexan-6-yl)amino)pyridin-4-yl)methyl)-3-(2,2-dimethyl-2,3-dihydrobenzofuran-6-yl)-5,5-dimethylimidazolidine-2,4-dione]
> 10000	CC1(C)C(=O)N(c2ccc3c(c2)CCS3(=O)=O)C(=O)N1Cc1ccnc(N[C@H]2[C@@H]3COC[C@@H]32)c1 [Compound 250, 1-((2-(((1R,5S,6r)-3-oxabicyclo[3.1.0]hexan-6-yl)amino)pyridin-4-yl)methyl)-3-(1,1-dioxido-2,3-dihydrobenzo[b]thiophen-5-yl)-5,5-dimethylimidazolidine-2,4-dione]
> 10000	CC1(C)C(=O)N(c2ccc3c(c2)N(S(C)(=O)=O)CC3)C(=O)N1Cc1ccnc(N[C@H]2[C@@H]3COC[C@@H]32)c1 [Compound 251, 1-((2-(((1R,5S,6r)-3-oxabicyclo[3.1.0]hexan-6-yl)amino)pyridin-4-yl)methyl)-5,5-dimethyl-3-(1-(methylsulfonyl)indolin-6-yl)imidazolidine-2,4-dione]
> 10000	CC1(C)C(=O)N(c2ccc3c(c2)N(C(=O)C2CC2)CC3)C(=O)N1Cc1ccnc(N[C@H]2[C@@H]3COC[C@@H]32)c1 [Compound 252, 1-((2-(((1R,5S,6r)-3-oxabicyclo[3.1.0]hexan-6-yl)amino)pyridin-4-yl)methyl)-3-(1-(cyclopropanecarbonyl)indolin-6-yl)-5,5-dimethylimidazolidine-2,4-dione]
≤ 500	CC1(C)CN(C(N)=O)c2cc(N3C(=O)N(Cc4ccnc(N[C@H]5[C@@H]6COC[C@@H]65)c4)C(C)(C)C3=O)ccc21 [Compound 253, 6-(3-((2-(((1R,5S,6r)-3-oxabicyclo[3.1.0]hexan-6-yl)amino)pyridin-4-yl)methyl)-4,4-dimethyl-2,5-dioxoimidazolidin-1-yl)-3,3-dimethylindoline-1-carboxamide]
≤ 500	COC[C@@H](C)Nc1cc(CN2C(=O)N(c3cc(C(C)(C)C)nn3C)C(=O)C2(C)C)ccn1 [Compound 259, (R)-3-(3-(tert-butyl)-1-methyl-1H-pyrazol-5-yl)-1-((2-((1-methoxypropan-2-yl)amino)pyridin-4-yl)methyl)-5,5-dimethylimidazolidine-2,4-dione]
2000 to 10000	Cn1nc(C(C)(C)C)cc1N1C(=O)N(Cc2ccnc(NC3CCOCC3)c2)C(C)(C)C1=O [Compound 260, 3-(3-(tert-butyl)-1-methyl-1H-pyrazol-5-yl)-5,5-dimethyl-1-((2-((tetrahydro-2H-pyran-4-yl)amino)pyridin-4-yl)methyl)imidazolidine-2,4-dione]
> 10000	Cn1nc(C(C)(C)C)cc1N1C(=O)N(Cc2ccnc(N[C@H]3CCOC3)c2)C(C)(C)C1=O [Compound 261, (S)-3-(3-(tert-butyl)-1-methyl-1H-pyrazol-5-yl)-5,5-dimethyl-1-((2-((tetrahydrofuran-3-yl)amino)pyridin-4-yl)methyl)imidazolidine-2,4-dione]
> 10000	C[C@@H](CC#N)Nc1cc(CN2C(=O)N(c3cc(C(C)(C)C)nn3C)C(=O)C2(C)C)ccn1 [Compound 262, (S)-3-((4-((3-(3-(tert-butyl)-1-methyl-1H-pyrazol-5-yl)-5,5-dimethyl-2,4-dioxoimidazolidin-1-yl)methyl)pyridin-2-yl)amino)butanenitrile]
≤ 500	CC(C)c1ccc(N2C(=O)N(Cc3ccnc(N[C@H]4[C@@H]5COC[C@@H]54)c3)C(C)(C)C2=O)cc1C#N [Compound 279, 5-(3-((2-(((1R,5S,6r)-3-oxabicyclo[3.1.0]hexan-6-yl)amino)pyridin-4-yl)methyl)-4,4-dimethyl-2,5-dioxoimidazolidin-1-yl)-2-isopropylbenzonitrile]
≤ 500	CC(C)c1ccc(N2C(=O)N(Cc3ccnc(N[C@H]4[C@@H]5COC[C@@H]54)c3)C(C)(C)C2=O)cc1OCCN(C)C [Compound 280, 1-((2-(((1R,5S,6r)-3-oxabicyclo[3.1,0]hexan-6-yl)amino)pyridin-4-yl)methyl)-3-(3-(2-(dimethylamino)ethoxy)-4-isopropylphenyl)-5,5-dimethylimidazolidine-2,4-dione]
